Assay results reported in patent US11464783B2, “Heterocyclic compounds” (Aligos Therapeutics, Inc., priority 2019, dated 2022).

Tested on: HBV
Assay: HBV-DNA Antiviral Assay Using HepG2.117 Cells
Assay type: cell-based
Conditions: Hepatitis B virus, HepG2.117, 96 h, intracellular HBV DNA by qPCR, day 4
Experimental: The following assay procedure describes the HBV antiviral assay, using HepG2.117 cells, which carry a stably integrated genotype D HBV genome under the control of a Tet-off promoter, and intracellular HBV DNA quantification as endpoint. Cell viability is assessed in parallel by measuring the intracellular ATP content using ATPlite (Perkin Elmer).
On day 0, HepG2.117 cells (which are maintained in routine cell culture with doxycycline present in the medium at a final concentration of 1 μg/mL) were seeded in 96-well plates (white with clear bottom) at a density of 2.0×10^4 cells/well (0.1 mL/well) in medium without doxycycline to induce pgRNA transcription and subsequent formation of HBV particles. The cells were incubated at 37° C. and 5% CO2.
On day 1, medium was removed from each well, the test articles were diluted in culture medium without doxcycyline and 100 μL was added to cell culture wells (9 concentrations, 4-fold dilution). For each plate, 6 untreated (merely DMSO) wells were included. The final concentration of DMSO in the culture medium was 2%. Each plate was prepared in duplicate (one for HBV DNA extraction, one for ATPlite measurement). The cells were incubated at 37° C. and 5% CO2 for 3 days.
On day 4, cell viability was assessed using ATPlite and cell lysates were prepared for HBV DNA extraction and subsequent quantification by qPCR.
Medium was removed from each well and 100 μL of 0.33% NP-40 in H2O was added to each well. Plates were sealed, incubated at 4° C. for 5 mins, vortexed extensively and centrifuged briefly. Next, 35 μL of lysate was added to 65 μL QuickExtract DNA Extraction Solution (Epicentre) in a PCR plate for each well. PCR plate was incubated at 65° C. for 6 mins, 98° C. for 2 mins and finally cooled to 4° C. HBV DNA was then quantified by qPCR with HBV-specific primers and probes as specified in Table 2 using the Bio-Rad SSOAdvanced Universal Probes Supermix on a CFX96 machine (Bio-Rad). The PCR cycle program consisted of 95° C. for 3 mins, followed by 40 cycles at 95° C. for 10 sec and 60° C. for 30 sec.
A DNA standard was prepared by dilution of an IDT gBlock corresponding to the amplicon with concentrations ranging from 10^2 to 10^8 copies/input (i.e. per 4 μL) and used to generate a standard curve by plotting Cq values vs. HBV DNA standard concentration. The quantity of HBV DNA in each sample was determined by interpolating from the standard curve.
Cell viability was calculated as follows: % Cell viability=(luminescence value of test sample)/(average luminescence value of 2% DMSO control)×100%. HBV DNA inhibition was calculated as follows: 100−(HBV DNA copy number of test sample)/(average HBV DNA copy number of 2% DMSO control)×100%. No normalization to entecavir was required due to the excellent dynamic window of this assay. The CC50, EC so and EC90 values were determined by dose-response curves fitted by GraphPad Prism using “log (agonist) vs. response—Variable slope”.

O=C(NCCc1ccccc1)C1CN(C(=O)c2ccc(Br)c(Cl)c2)CCS1(=O)=O (stereo not shown) [Compound 4, 4-(4-bromo-3-chlorobenzoyl)-N-phenethylthiomorpholine-2-carboxamide 1,1-dioxide] was tested, and the EC50 was 500 to 5000 nM.
Compound O=C(c1ccc(Cl)cc1F)N1CCS(=O)(=O)C(c2cccs2)C1 (stereo not shown) [Compound 10b, (4-chloro-2-fluoro-phenyl)-[1,1-dioxo-2-(2-thienyl)-1,4-thiazinan-4-yl]methanone] has an EC50 of 500 to 5000 nM.
Compound O=C(c1cc(F)cc(Cl)c1)N1CCS(=O)(=O)C(c2cccs2)C1 (stereo not shown) [Compound 13a, (3-chloro-5-fluoro-phenyl)-[1,1-dioxo-2-(2-thienyl)-1,4-thiazinan-4-yl]methanone] has an EC50 of 500 to 5000 nM.
With Cn1cnc(-c2ccc(C3CN(C(=O)Nc4ccc(F)c(Cl)c4)CCS3(=O)=O)s2)c1 (stereo not shown) [Compound 15a, N-(3-chloro-4-fluoro-phenyl)-2-[5-(1-methylimidazol-4-yl)-2-thienyl]-1,1-dioxo-1,4-thiazinane-4-carboxamide] the EC50 was 500 to 5000 nM.
N=S1(=O)CCN(C(=O)Nc2ccc(F)c(Cl)c2)CC1c1cccs1 (stereo not shown) [Compound 17, N-(3-chloro-4-fluoro-phenyl)-1-imino-1-oxo-2-(2-thienyl)-1,4-thiazinane-4-carboxamide] showed an EC50 of 500 to 5000 nM.
C[C@H]1CS(=O)(=O)[C@H](c2cccs2)CN1C(=O)Nc1ccc(F)c(Cl)c1 [Compound 20, (2S,5S)—N-(3-chloro-4-fluoro-phenyl)-5-methyl-1,1-dioxo-2-(2-thienyl)-1,4-thiazinane-4-carboxamide] was tested, and the EC50 was 500 to 5000 nM.
C[C@H]1CS(=O)(=O)[C@@H](c2cccs2)CN1C(=O)Nc1ccc(F)c(Cl)c1 [Compound 21, (2R,5S)—N-(3-chloro-4-fluoro-phenyl)-5-methyl-1,1-dioxo-2-(2-thienyl)-1,4-thiazinane-4-carboxamide] showed an EC50 of 100 to 500 nM.
For C[C@@H]1CS(=O)(=O)[C@H](c2cccs2)CN1C(=O)Nc1ccc(F)c(Cl)c1 [Compound 23, (2S,5R)-N-(3-chloro-4-fluorophenyl)-5-methyl-1,1-dioxo-2-(thiophen-2-yl)-1,4-thiomorpholine-4-carboxamide], the EC50 was 500 to 5000 nM.
For C[C@@H]1CS(=O)(=O)[C@@H](c2cccs2)CN1C(=O)c1ccc(Br)c(Cl)c1 [Compound 25, (4-bromo-3-chloro-phenyl)-[(2R,5R)-5-methyl-1,1-dioxo-2-(2-thienyl)-1,4-thiazinan-4-yl]methanone], the EC50 was 500 to 5000 nM.
C[C@@H]1CS(=O)(=O)[C@H](c2cccs2)CN1C(=O)c1ccc(Br)c(Cl)c1 [Compound 26, (4-bromo-3-chloro-phenyl)-[(2S,5R)-5-methyl-1,1-dioxo-2-(2-thienyl)-1,4-thiazinan-4-yl]methanone] was tested, and the EC50 was 500 to 5000 nM.
Compound O=C(c1ccc(Br)c(Cl)c1)N1CCS(=O)(=O)C(c2nccs2)C1 (stereo not shown) [Compound 27, (4-bromo-3-chloro-phenyl)-(1,1-dioxo-2-thiazol-2-yl-1,4-thiazinan-4-yl)methanone] has an EC50 of 100 to 500 nM.
O=C(c1ccc(Br)c(Cl)c1)N1CCS(=O)(=O)C(c2nnco2)C1 (stereo not shown) [Compound 28, (4-bromo-3-chloro-phenyl)-[2-(1,3,4-oxadiazol-2-yl)-1,1-dioxo-1,4-thiazinan-4-yl]methanone] gave an EC50 of 500 to 5000 nM.
Cc1cnc(C2CN(C(=O)c3ccc(Br)c(Cl)c3)CCS2(=O)=O)s1 (stereo not shown) [Compound 29, (4-bromo-3-chloro-phenyl)-[2-(5-methylthiazol-2-yl)-1,1-dioxo-1,4-thiazinan-4-yl]methanone] gave an EC50 of no more than 100 nM.
With O=C(c1ccc(Br)c(Cl)c1)N1CCS(=O)(=O)C(c2ncc(Cc3ccccc3)s2)C1 (stereo not shown) [Compound 30, (2-(5-benzylthiazol-2-yl)-1,1-dioxidothiomorpholino)(4-bromo-3-chlorophenyl)methanone] the EC50 was 100 to 500 nM.
In the case of O=C(c1ccc(Br)c(Cl)c1)N1CCS(=O)(=O)C(c2nc(Cc3ccccc3)cs2)C1 (stereo not shown) [Compound 31, (2-(4-benzylthiazol-2-yl)-1,1-dioxidothiomorpholino)(4-bromo-3-chlorophenyl)methanone], the EC50 is reported as 100 to 500 nM.
O=C(c1ccc(Cl)c(Cl)c1)N1CCS(=O)(=O)C(c2nccs2)C1 (stereo not shown) [Compound 32] was tested, and the EC50 was 500 to 5000 nM.
Compound C[C@@]1(C(=O)NCc2ccccc2)CN(C(=O)c2ccc(Br)c(Cl)c2)CCS1(=O)=O [Compound 33a] has an EC50 of 100 to 500 nM.
C[C@]1(C(=O)NCc2ccccc2)CN(C(=O)c2ccc(Br)c(Cl)c2)CCS1(=O)=O [Compound 33b] gave an EC50 of 500 to 5000 nM.
For CC1(c2nccs2)CN(C(=O)c2ccc(Br)c(Cl)c2)CCS1(=O)=O (stereo not shown) [Compound 34], the EC50 was 500 to 5000 nM.
Work on O=C(c1ccc(Br)c(Cl)c1)N1CCS(=O)(=O)[C@](F)(C(=O)NCc2ccccc2)C1 [Compound 35a] yielded an EC50 of no more than 100 nM.
O=C(c1ccc(Br)c(Cl)c1)N1CCS(=O)(=O)[C@@](F)(C(=O)NCc2ccccc2)C1 [Compound 35b] showed an EC50 of 500 to 5000 nM.
For O=C(c1ccc(Br)c(Cl)c1)N1CCS(=O)(=O)[C@](F)(c2ncc(Cc3ccccc3)s2)C1 [Compound 37a, (4-bromo-3-chloro-phenyl)-[(2S)-2-(5-benzylthiazol-2-yl)-2-fluoro-1,1-dioxo-1,4-thiazinan-4-yl]methanone], the EC50 was no more than 100 nM.
O=C(c1ccc(Br)c(Cl)c1)N1CCS(=O)(=O)[C@@](F)(c2ncc(Cc3ccccc3)s2)C1 [Compound 37b, (4-bromo-3-chloro-phenyl)-[(2R)-2-(5-benzylthiazol-2-yl)-2-fluoro-1,1-dioxo-1,4-thiazinan-4-yl]methanone] showed an EC50 of 500 to 5000 nM.
For O=C(c1ccc(Br)c(Cl)c1)N1CCS(=O)(=O)[C@](F)(C(=O)NCCc2ccccc2)C1 [Compound 38a], the EC50 was greater than 5000 nM.
In the case of O=C(c1ccc(Br)c(Cl)c1)N1CCS(=O)(=O)[C@@](F)(C(=O)NCCc2ccccc2)C1 [Compound 38b], the EC50 is reported as 500 to 5000 nM.
In the case of O=C(c1ccc(Br)c(Cl)c1)N1CCS(=O)(=O)[C@@](F)(c2ncc(-c3ccccc3)s2)C1 [Compound 39], the EC50 is reported as 500 to 5000 nM.
N#Cc1cc(C(=O)N2CCS(=O)(=O)[C@](F)(c3ncc(Cc4ccccc4)s3)C2)ccc1Br [Compound 40a] showed an EC50 of 500 to 5000 nM.
With N#Cc1cc(C(=O)N2CCS(=O)(=O)[C@@](F)(c3ncc(Cc4ccccc4)s3)C2)ccc1Br [Compound 40b] the EC50 was no more than 100 nM.
With C[C@H](c1ccccc1)c1cnc([C@@]2(F)CN(C(=O)c3ccc(Br)c(Cl)c3)CCS2(=O)=O)s1 [Compound 41a] the EC50 was no more than 100 nM.
Compound C[C@@H](c1ccccc1)c1cnc([C@@]2(F)CN(C(=O)c3ccc(Br)c(Cl)c3)CCS2(=O)=O)s1 [Compound 41b] has an EC50 of no more than 100 nM.
Work on C[C@H](c1ccccc1)c1cnc([C@]2(F)CN(C(=O)c3ccc(Br)c(Cl)c3)CCS2(=O)=O)s1 [Compound 41c] yielded an EC50 of 500 to 5000 nM.
Compound C[C@@H](c1ccccc1)c1cnc([C@]2(F)CN(C(=O)c3ccc(Br)c(Cl)c3)CCS2(=O)=O)s1 [Compound 41d] has an EC50 of 500 to 5000 nM.
C[C@@H](c1cnc([C@@]2(F)CN(C(=O)c3ccc(Br)c(C#N)c3)CCS2(=O)=O)s1)c1ccccc1F [Compound 43a] was tested, and the EC50 was no more than 100 nM.
In the case of C[C@H](c1cnc([C@@]2(F)CN(C(=O)c3ccc(Br)c(C#N)c3)CCS2(=O)=O)s1)c1ccccc1F [Compound 43b], the EC50 is reported as no more than 100 nM.
With C[C@@H](c1cnc([C@]2(F)CN(C(=O)c3ccc(Br)c(C#N)c3)CCS2(=O)=O)s1)c1ccccc1F [Compound 43c] the EC50 was 500 to 5000 nM.
In the case of C[C@H](c1cnc([C@]2(F)CN(C(=O)c3ccc(Br)c(C#N)c3)CCS2(=O)=O)s1)c1ccccc1F [Compound 43d], the EC50 is reported as 500 to 5000 nM.
N#Cc1cc(C(=O)N2CCS(=O)(=O)[C@@](F)(c3ncc(Cc4ccccc4-c4ncccn4)s3)C2)ccc1Br [Compound 45a] was tested, and the EC50 was no more than 100 nM.
For N#Cc1cc(C(=O)N2CCS(=O)(=O)[C@](F)(c3ncc(Cc4ccccc4-c4ncccn4)s3)C2)ccc1Br [Compound 45b], the EC50 was 500 to 5000 nM.
O=C(c1ccc(Br)c(Cl)c1)N1CCS(=O)(=O)[C@@](F)(c2ncc(Cc3ccccc3)o2)C1 [Compound 46a, (R)-(2-(5-benzyloxazol-2-yl)-2-fluoro-1,1-dioxidothiomorpholino)(4-bromo-3-chlorophenyl)methanone] showed an EC50 of no more than 100 nM.
COc1ccc(Cc2cnc([C@]3(F)CN(C(=O)c4ccc(Br)c(Cl)c4)CCS3(=O)=O)s2)c(OC)c1 [Compound 49a] showed an EC50 of 500 to 5000 nM.
